As usually defined, the viability is a read-out of living cells in per cent, often relative to untreated cells.

The data set is described as follows: in vitro. The following applies: human, hela cells, % viability.
Regarding `COc1nnc(-c2ccc(N3CCOCC3)c(NC(=O)COc3cccc(C)c3)c2)c2ccccc12` [CBK266207], the viability at 28.5 h, 10 µM amounted to 81.9%. `O=C1NC(=O)C(CC(=O)N2CCC3(CCCNC3)C2)N1` (centres unmarked) [CBK153232C]: the viability at 28.5 h, 10 µM was 79.2%. The value for `O=S(=O)(NCC1CCCO1)c1ccc2oc3ccc(S(=O)(=O)NCC4CCCO4)cc3c2c1` (centres unmarked) [CBK265914] was 96.2%; that for `COC(=O)Nc1ncc(CN2C(=O)c3ccccc3C2=O)s1` [CBK268434] was 111%; that for `Nc1ncc(-c2cccc3ccccc23)nc1NCc1ccccc1` [CBK063565] was 99%. Consider `CCN1CCc2cc(CN3CCCC(Cn4ccnc4C)C3)ccc21` (centres unmarked) [CBK281965], for which the viability at 28.5 h, 10 µM stood at 96.9%. The value for `O=C(c1cccnc1)N1CCCC(c2cc3ccccc3cn2)C1` (centres unmarked) [CBK285154] was 98.6%; that for `COc1ccccc1C1(O)CCN(Cc2ccccc2OCc2ccc3c(c2)OCO3)CC1` [CBK286337] was 80.4%; that for `CCN1CCN(c2cc(C)nc3c(-c4ccccc4)cnn23)CC1` [CBK287793] was 88.4%. As for `O=S(=O)(NCCSCc1c(Cl)cccc1Cl)c1ccc(Cl)cc1` [CBK265304], the viability at 28.5 h, 10 µM turned out to be 91.2%.

As to `C=CCOC(=O)C1=C(C)OC(N)=C(C(=O)OCc2ccccc2)C12C(=O)Nc1ccccc12` (centres unmarked) [CBK262527], the viability at 28.5 h, 10 µM is 90.9%. With `Cc1ccccc1NC(=O)CC(C(=O)O)N(C)C` (centres unmarked) [CBK266924], the viability at 28.5 h, 10 µM worked out at 103%. In the case of `O=C(O)CC(NCc1ccccc1)C(=O)Nc1ccc(Cl)cc1` (centres unmarked) [CBK267141], the viability at 28.5 h, 10 µM is 95.4%. The value for `CCn1c(SCC(=O)O)nnc1-c1ccco1` [CBK068633] was 86.8%; that for `C=C(C)CN1CCN(C(=O)c2[nH]c3ccc(OCC)cc3c2C)CC1` [CBK282666] was 96.7%. Under `CCOc1ccc(-c2cn(C(=O)Nc3ccccc3)nc2N)cc1` [CBK267317] stands 90.3%; under `CCOC(=O)NC(=S)NC(=O)C(C)(C)C` [CBK020037], 100%.

Turning to `Cc1nn(CC(=O)N2CCCC2)c(=O)c2cc3ccsc3n12` [CBK284057], the viability at 28.5 h, 10 µM stood at 88.7%. Under `O=C(C1=C(O)C(=O)N(CCCN2CCOCC2)C1c1ccccn1)c1ccc(Cl)cc1` (centres unmarked) [CBK266445] stands 112%; under `Cn1cccc1C(=O)NCCNC(=O)c1cc2ccccc2[nH]1` [CBK297894], 87.7%. On to `O=C(NCc1ccccc1)c1cnccc1C(F)(F)F` [CBK200194], for which the viability at 28.5 h, 10 µM was 92.3%.

Take `O=C(COc1cccnc1)N1CCN(c2ccccc2)CC1` [CBK200210]: the viability at 28.5 h, 10 µM was 106%. As to `CCn1cc(CN(C)Cc2ccon2)c2cc(C(=O)O)ncc21` [CBK307017], the viability at 28.5 h, 10 µM turned out to be 84.7%. Under `COC(=O)c1cc(NC(=O)OC(C)(C)C)ccc1O` [CBK016529] stands 86%; under `COc1ccc(/C=N/NC(=O)c2cc[nH]n2)cc1CSc1nc2ccccc2s1` [CBK263734], 103%. As to `CC1CCCCN1C(=O)CCn1c(-c2cccnc2)cc2cccnc21` (centres unmarked) [CBK282692], the viability at 28.5 h, 10 µM worked out at 97.1%. As to `O=[N+]([O-])c1ccc(OCCOc2nccnc2N2CCNCC2)c2ncccc12` [CBK000623C], the viability at 28.5 h, 10 µM was 94.9%. Under `COc1cccc(NC(=O)c2ccc(-c3cc(C(F)(F)F)cc(C(F)(F)F)c3)nc2N(C)C)c1` [CBK106028] stands 119%; under `CCn1c(=O)n(CC(=O)NCc2ccccc2)c2cccnc21` [CBK283824], 101%. The value for `CC(C)c1nn(C)c(N(C)C)c1CNCc1cscn1` [CBK304321C] was 84.4%. Take `CC(=O)N1CCC(N[C@H]2C[C@@H](Cc3cc(CN4CCCCC4)on3)C2(C)C)CC1` [CBK289699]: the viability at 28.5 h, 10 µM was 89%. `O=c1cc(N2CCCCC2)cnn1Cc1nccn1C1CC1` [CBK307484]: the viability at 28.5 h, 10 µM is 89.6%.

The record behind these values is publication PMC12040169 (PLOS Biology, 2025).
